The values that follow come from patent publication US11708346B2, “Treatment and prevention of neuropathic pain with P2Y14 antagonists” (Saint Louis University, priority 2019, dated 2023).

The target of one test is 5HT1E (Homo sapiens, UniProt P28566). The experiment in a line: PDSP off-target binding. Conditions: ± SEM.
The next test has as its target TSPO (Rattus norvegicus, UniProt P16257). The experiment in a line: PDSP off-target binding. Particulars: ± SEM.
The target in the next test is β3 (Homo sapiens, UniProt P13945). The experiment in a line: PDSP off-target binding. Particulars: ± SEM.
Sequence of β3 (P13945 whole entry): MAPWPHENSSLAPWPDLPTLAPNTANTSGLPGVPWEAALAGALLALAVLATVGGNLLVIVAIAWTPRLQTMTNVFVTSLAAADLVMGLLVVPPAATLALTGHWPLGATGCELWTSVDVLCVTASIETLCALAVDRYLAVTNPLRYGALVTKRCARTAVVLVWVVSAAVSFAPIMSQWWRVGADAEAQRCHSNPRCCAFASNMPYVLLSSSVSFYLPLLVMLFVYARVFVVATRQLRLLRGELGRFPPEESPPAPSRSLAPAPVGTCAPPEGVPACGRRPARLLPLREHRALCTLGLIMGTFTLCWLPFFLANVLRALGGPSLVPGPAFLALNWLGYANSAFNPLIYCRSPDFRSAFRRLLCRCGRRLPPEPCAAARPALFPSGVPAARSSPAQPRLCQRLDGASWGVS
In another test the target is 5HT1D (Homo sapiens, UniProt P28221). The test is described as follows: PDSP off-target binding. Particulars: ± SEM.
Sequence of 5HT1D (P28221 whole entry, species assumed): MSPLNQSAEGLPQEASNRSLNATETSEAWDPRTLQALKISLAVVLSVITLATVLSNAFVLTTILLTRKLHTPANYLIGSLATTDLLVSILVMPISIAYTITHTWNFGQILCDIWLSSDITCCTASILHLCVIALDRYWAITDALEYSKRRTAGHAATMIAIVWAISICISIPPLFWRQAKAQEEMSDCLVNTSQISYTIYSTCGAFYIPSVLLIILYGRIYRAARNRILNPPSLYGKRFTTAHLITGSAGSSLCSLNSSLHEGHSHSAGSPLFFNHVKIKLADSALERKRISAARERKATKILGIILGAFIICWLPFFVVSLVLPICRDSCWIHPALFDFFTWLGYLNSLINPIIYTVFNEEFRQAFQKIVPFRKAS
Another test deals with T1, α2B (Homo sapiens, UniProt P18089).
T1 sequence (P18089 1-450): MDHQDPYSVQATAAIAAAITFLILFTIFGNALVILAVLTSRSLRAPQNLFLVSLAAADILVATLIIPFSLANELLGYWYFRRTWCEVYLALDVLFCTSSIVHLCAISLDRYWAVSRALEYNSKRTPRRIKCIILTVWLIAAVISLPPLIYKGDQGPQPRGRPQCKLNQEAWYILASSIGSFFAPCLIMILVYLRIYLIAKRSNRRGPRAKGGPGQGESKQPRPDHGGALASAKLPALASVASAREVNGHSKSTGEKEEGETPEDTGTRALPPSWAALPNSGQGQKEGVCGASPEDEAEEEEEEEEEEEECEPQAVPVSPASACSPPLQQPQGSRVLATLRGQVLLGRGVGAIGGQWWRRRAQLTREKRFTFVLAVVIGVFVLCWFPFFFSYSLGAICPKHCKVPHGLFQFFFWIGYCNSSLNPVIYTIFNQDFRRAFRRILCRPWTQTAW
The experiment in a line: PDSP off-target binding.

A further test addresses T2, mP2Y14R (Mus musculus, UniProt Q9ESG6).
T2 sequence (Q9ESG6 1-338): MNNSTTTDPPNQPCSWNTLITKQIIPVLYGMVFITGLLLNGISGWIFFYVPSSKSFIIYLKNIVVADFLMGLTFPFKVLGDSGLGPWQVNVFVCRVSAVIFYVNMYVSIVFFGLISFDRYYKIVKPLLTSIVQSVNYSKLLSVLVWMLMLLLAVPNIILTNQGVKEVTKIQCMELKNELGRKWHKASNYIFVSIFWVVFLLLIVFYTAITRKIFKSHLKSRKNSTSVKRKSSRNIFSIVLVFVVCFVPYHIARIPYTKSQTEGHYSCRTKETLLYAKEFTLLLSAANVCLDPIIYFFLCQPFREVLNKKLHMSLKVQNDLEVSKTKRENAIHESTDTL

Another test deals with T3, hP2Y14R (Homo sapiens, UniProt Q15391).
T3 construct: expressed in transfected cells; host or cells: CHO
T3 sequence (Q15391 1-338): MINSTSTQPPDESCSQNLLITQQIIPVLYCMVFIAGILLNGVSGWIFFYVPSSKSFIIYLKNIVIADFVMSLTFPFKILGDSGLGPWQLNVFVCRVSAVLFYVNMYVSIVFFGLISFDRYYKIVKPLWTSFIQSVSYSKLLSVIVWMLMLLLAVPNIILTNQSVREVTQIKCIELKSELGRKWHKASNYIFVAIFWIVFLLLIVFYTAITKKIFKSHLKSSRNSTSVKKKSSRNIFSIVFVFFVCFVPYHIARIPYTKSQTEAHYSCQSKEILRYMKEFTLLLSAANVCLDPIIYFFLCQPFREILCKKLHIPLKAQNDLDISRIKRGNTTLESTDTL
The test is described as follows: Competitive fluorescent binding assay in whole CHO-hP2Y14R cells, tracer 20, flow cytometry. Particulars: read-out: Human P2Y14R binding affinity (IC50). (In flow cytometry, cells or beads pass a laser one at a time.)

A further test has as its target T4, α2A (Homo sapiens, UniProt P08913).
T4 sequence (P08913 1-465): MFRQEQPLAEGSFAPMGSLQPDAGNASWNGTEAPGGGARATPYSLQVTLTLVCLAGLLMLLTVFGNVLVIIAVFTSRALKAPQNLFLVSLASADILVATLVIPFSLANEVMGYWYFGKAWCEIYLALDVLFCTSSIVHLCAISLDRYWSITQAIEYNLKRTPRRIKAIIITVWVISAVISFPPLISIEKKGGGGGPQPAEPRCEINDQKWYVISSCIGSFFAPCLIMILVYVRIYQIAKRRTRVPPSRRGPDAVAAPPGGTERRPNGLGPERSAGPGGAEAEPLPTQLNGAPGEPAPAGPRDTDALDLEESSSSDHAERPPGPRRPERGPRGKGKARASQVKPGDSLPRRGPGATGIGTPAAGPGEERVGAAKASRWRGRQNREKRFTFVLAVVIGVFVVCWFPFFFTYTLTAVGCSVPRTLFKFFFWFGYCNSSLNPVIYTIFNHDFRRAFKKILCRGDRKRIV
The experiment in a line: PDSP off-target binding.

The next test addresses T5, α2C (Homo sapiens, UniProt P18825).
T5 sequence (P18825 1-462): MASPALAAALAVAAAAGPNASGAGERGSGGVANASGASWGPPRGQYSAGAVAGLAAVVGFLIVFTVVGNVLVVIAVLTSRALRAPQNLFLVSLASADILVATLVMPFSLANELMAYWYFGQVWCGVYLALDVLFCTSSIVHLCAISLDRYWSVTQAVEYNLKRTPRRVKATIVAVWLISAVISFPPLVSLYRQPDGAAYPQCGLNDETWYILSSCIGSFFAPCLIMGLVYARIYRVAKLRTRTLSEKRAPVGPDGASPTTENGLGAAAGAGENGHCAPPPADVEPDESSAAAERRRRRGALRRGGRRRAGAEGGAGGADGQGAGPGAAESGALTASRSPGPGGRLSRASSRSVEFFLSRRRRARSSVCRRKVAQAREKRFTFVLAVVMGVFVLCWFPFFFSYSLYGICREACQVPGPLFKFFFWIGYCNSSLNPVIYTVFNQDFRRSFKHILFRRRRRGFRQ
The test is described as follows: PDSP off-target binding. Particulars: ± SEM.

The test system of test [1] is CCI-induced mechano-allodynia. The experiment in a line: Chronic constriction injury (CCI) of the sciatic nerve, mechano-allodynia by von Frey filaments. The test is classed as in vivo, mouse. As for the experimental part: Chronic constriction injury (CCI) to the sciatic nerve was performed using the Bennett model. […] Then the animals were placed on a sterile surgical field and the skin was wiped with topical antiseptic, Dermachlor solution (0.2% chlorhexidine gluconate). […] A small incision was created on the lateral side of the left hind limb parallel to the femur. The sciatic nerve was exposed and ligated on two sites about 1 mm apart above the trifurcation using silk sutures 6.0. The incision was closed with clips and lidocaine cream was applied.
Mice were acclimated to the testing mesh-rack for 30 min before behavioral measurements. All behavioral testing was performed in the morning. The baseline measurements were determined on day 0 before CCI procedure. On day 7 post-CCI, baseline behavior responses were assessed, beginning prior to drug administration. Following drug injection, the behaviors were evaluated at multiple time points. Mechano-allodynia was quantified according to the hind paw withdrawal response to von Frey filaments stimulation by the Dixon up-and-down method. […] In presence of a positive withdrawal response a lighter filament was applied. If a negative response occurred, a stronger filament was used. At least four readings are obtained after the first positive response and the pattern of response was converted to a 50% paw withdrawal threshold (PWT), using the method described by Chaplan et al., J. Neurosci.
Data are expressed as mean±SD and analyzed by two-tailed, two-way repeated measures ANOVA with Dunnett's post hoc comparisons to day 7 behavior. The percentage of reversal of peak CCI-induced pain afforded by each drug was calculated for each animal using their baseline and day 7 post CCI behavioral measures. % Reversal=(PWT(g)t−PWT(g)day7)/PWT(g)day0−PWT(g)day7)×100, where PWT(g)=paw withdrawal threshold, t=time after drug. […] All statistical analyses were performed using GraphPad Prism 8 (Graph Pad Inc., San Diego, Calif.). Significance was accepted at p<0.05.

The target in the next test is DOR (Homo sapiens, UniProt P41143). The test is described as follows: PDSP off-target binding.
Sequence of DOR (P41143 whole entry): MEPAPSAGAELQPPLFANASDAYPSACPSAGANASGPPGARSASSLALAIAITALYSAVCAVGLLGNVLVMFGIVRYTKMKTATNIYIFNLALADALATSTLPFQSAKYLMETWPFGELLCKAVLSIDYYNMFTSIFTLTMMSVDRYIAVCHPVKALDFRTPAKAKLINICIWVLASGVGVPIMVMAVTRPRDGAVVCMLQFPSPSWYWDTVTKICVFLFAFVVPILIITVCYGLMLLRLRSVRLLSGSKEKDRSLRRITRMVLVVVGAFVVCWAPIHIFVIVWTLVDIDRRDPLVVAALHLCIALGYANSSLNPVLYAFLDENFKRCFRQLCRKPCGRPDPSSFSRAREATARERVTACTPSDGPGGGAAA
[2] abbreviates: 10 μmol/kg, i.p., day 7 post-CCI, n = 3.

Entries after “also recorded” stand apart in the source; their conditions may differ.

Sequence of TSPO (P16257 whole entry): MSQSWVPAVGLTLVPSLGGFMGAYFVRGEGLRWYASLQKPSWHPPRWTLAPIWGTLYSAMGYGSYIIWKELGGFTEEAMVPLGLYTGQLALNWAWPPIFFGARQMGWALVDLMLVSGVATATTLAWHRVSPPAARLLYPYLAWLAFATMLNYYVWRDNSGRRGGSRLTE
Sequence of 5HT1E (P28566 whole entry, species assumed): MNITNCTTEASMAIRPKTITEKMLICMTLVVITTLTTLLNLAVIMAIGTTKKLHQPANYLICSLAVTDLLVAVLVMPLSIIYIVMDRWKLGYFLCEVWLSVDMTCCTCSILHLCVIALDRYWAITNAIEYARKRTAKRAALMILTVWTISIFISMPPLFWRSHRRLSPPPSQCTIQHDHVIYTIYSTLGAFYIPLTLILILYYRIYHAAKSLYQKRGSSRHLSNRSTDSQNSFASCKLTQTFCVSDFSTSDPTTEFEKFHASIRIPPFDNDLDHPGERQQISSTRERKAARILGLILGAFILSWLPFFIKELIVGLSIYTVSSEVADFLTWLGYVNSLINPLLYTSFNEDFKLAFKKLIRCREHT

Take `CC(=O)N1CCC(c2ccc(-c3cc(C(=O)O)cc4cc(-c5ccc(C(F)(F)F)cc5)ccc34)cc2)CC1` [Compound 4, 4-(4-(1-(Acetyl)piperidin-4-yl)phenyl)-7-(4-(trifluoromethyl)phenyl)-2-naphthoic acid]: the inhibition constant (Ki) at 5HT1E was determined as 3.91 µM; at TSPO, 0.508 µM; on β3 it was 0.86 µM; at 5HT1D, 1.75 µM.

`O=C(O)c1cc(-c2ccc(C3CCNCC3)cc2)cc(-c2cn(-c3ccc(C(F)(F)F)cc3)nn2)c1` [Compound 7, 4′-(Piperidin-4-yl)-5-(1-(4-(trifluormethyl)phenyl)-1H-1,2,3-triazol-4-yl)-[1,1′-biphenyl]-3-carboxylic acid] had an inhibitory constant (Ki) on α2B of 5.33 µM. For the same compound, on mP2Y14R (7 vs 6), the “mP2Y14R affinity compared to isomer 6” value is reported as “nearly equipotent”. For the same compound, the half-inhibitory concentration (IC50) on mP2Y14R (read-out: Mouse P2Y14R binding affinity (IC50), mP2Y14R in HEK293 cells, tracer 20) turned out to be 0.246 ± 0.063 µM. The 50% inhibitory concentration (IC50) on hP2Y14R is 0.664 ± 0.175 µM. On α2A, this compound registered a Ki of 0.959 µM. At α2C, this compound gave an inhibition constant (Ki) of 2.71 µM. In addition, the “In vivo efficacy compared with a comparator compound” value in test [1] (10 μmol/kg i.p., 6 vs 7, 4 vs 1) is given as “no statistical difference; also recorded: similar”. Further, in [1] (setting [2]), the “Effect at 0.5 h (% ± SD), percent inhibition of mechano-allodynia” value was 70.7 ± 16.5%; the “Effect at 1 h (% + SD), percent inhibition of mechano-allodynia” value is 86.8 ± 2.4%; the “Effect at 2 h (% ± SD), percent inhibition of mechano-allodynia” value is 71.4 ± 10.2%; the “Effect at 3 h (% ± SD), percent inhibition of mechano-allodynia” value is recorded as 55.1 ± 18.6%. The “Effect at 5 h (% ± SD), percent inhibition of mechano-allodynia” value in [1] (setting [2]) is 6.7 ± 5.9%. For the same compound, the “Reversal of CCI-induced mechano-allodynia” value in test [1] (10 μmol/kg, i.p., ipsilateral hind paw, day 7 post-CCI) is “reversed the allodynia”. Further, the inhibitory constant (Ki) at DOR stood at 3.79 µM.

What is called Ki is the dissociation constant of the complex between target and ligand, obtained from inhibition or displacement. Read a low Ki as tighter binding. By IC50 is commonly meant the concentration at which inhibition is half-maximal.
